Reference: BindingDB's records for patent US11584735 (Kalvista Pharmaceuticals, 2023)

Molecular target: Serine protease 1 (Homo sapiens, UniProt P07477)
Experiment: Enzymatic Activity Assay
Experimental: Human serine protease enzymes plasmin, thrombin and trypsin were assayed for enzymatic activity using an appropriate fluorogenic substrate. Protease activity was measured by monitoring the accumulation of liberated fluorescence from the substrate over 5 minutes. The linear rate of fluorescence increase per minute was expressed as percentage (%) activity. The Km for the cleavage of each substrate was determined by standard transformation of the Michaelis-Menten equation.

Chain of Serine protease 1 (P07477 whole entry): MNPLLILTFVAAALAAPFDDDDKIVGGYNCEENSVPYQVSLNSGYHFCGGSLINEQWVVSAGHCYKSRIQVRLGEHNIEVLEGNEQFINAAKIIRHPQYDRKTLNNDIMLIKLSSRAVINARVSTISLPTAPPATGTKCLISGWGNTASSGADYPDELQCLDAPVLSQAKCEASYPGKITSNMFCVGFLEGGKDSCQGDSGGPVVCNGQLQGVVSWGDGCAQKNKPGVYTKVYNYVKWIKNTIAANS

IC50: > 40 µM
Compound: COCc1nn(Cc2ccc(Cn3cc(F)ccc3=O)cc2)cc1C(=O)NCc1nccc(OC)c1F [US11584735, Compound of Formula A]
